Experimental data: patent publication US20100120798A1, “SUBSTITUTED PIPERIDINES CONTAINING A HETEROARYLAMIDE OR HETEROARYLPHENYL MOIETY” (ASTEX THERAPEUTICS LIMITED, priority 2006, published 2010)

Key:
[1] = In vitro MDA-MB-468 human breast adenocarcinoma GSK-3 phosphorylation assay; assay type: cell-based; settings: mean IC50, MDA-MB-468 cells, 2 hours with compound, phospho-GSK-3β
Text: This assay determines the ability of test compounds to inhibit phosphorylation of Serine-9 residue in Glycogen Synthase Kinase-3beta (GSK-3β) as a surrogate marker of cellular PKB (Akt) activity, as assessed using Acumen Explorer Fluorescent Plate-Reader technology. A MDA-MB-468 human breast adenocarcinoma cell line (LGC Promochem, Teddington, Middlesex, UK, Catalogue No. HTB-132) was routinely maintained in Dulbecco's modified Eagle's growth medium (DMEM; Invitrogen Limited, Paisley, UK Catalogue No. 11966-025) containing 10% heat-inactivated foetal calf serum (FCS; Sigma, Poole, Dorset, UK, Catalogue No. F0392) and 1% L-glutamine (Gibco, Catalogue No. 25030-024) at 37° C. with 5% CO2 up to a confluency of 70-90%.
For the phosphorylation assay, the cells were detached from the culture flask using Trypsin-EDTA (Invitrogen Limited, Catalogue No. 25300-062) and seeded into the wells of a black transparent-bottom Corning Costar Polystyrene 96 well plate (Fisher Scientific UK, Loughborough, Leicestershire, UK; Catalogue No. 3904 and DPS-130-020K) at a density of 5000 cells per well in 100 μl of complete growth media. The cells were incubated overnight at 37° C. with 5% CO2 to allow them to adhere.
On day 2, the cells were treated with test compounds and incubated for 2 hours at 37° C. with 5% CO2. Test compounds were prepared as 10 mM stock solutions in DMSO and dosed directly to required concentration into test wells using non-contact (acoustic dispensing of multiple 2.5 nl droplets directly into assay wells) ECHO dosing technology (Labcyte Inc. Sunnyvale, Calif., USA). Each plate contained control wells without test compound.
20 μl of fixing buffer (Phosphate Buffered Saline (PBS) containing 10% formaldehyde; Sigma; Catalogue No. F1635) was then added to each well to give a final well concentration 1.6%. Plates were then incubated for 30 minutes at room temperature prior to the fixative being removed. Each well was washed once with 250 μl of PBS and then 50 μl PBS added to each well. PBS was then aspirated and cells permeabilised and blocked by incubating each well with 50 μl of permeabilisation/blocking buffer (PBS containing 0.5% Tween 20 (Sigma; Catalogue No. P5927) and 5% Marvel Milk Powder (Andrews Pharmacy Ltd, Macclesfield, Cheshire, UK; Catalogue No. APC100199)) for 1 hour at room temperature prior to staining.
Following removal of Perm/Block buffer, 50 μl of primary anti-phospho-GSK-3β antibody (Cell Signalling Technology (New England Biolabs (Uk) Ltd.), Hitchin, Hertfordshire, UK; Catalogue No. 9336 diluted 1:400 in Blocking buffer (PBS containing 5% Marvel and 0.05% Tween/Polysorbate 20) was added to each well and incubated overnight at 4° C.
Each well was washed three times in 250 μl of wash buffer (PBS containing 0.05% polysorbate 20), and cells incubated for 1 hour at room temperature with 50 μl of secondary fluorescently-labelled anti-rabbit Alexa Fluor 488 antibody (Molecular Probes, Invitrogen Limited, Catalogue No. A11008) diluted 1:750 in blocking buffer. Plates were washed three times in 250 μl of wash buffer and stored containing 50 μl of PBS at 4° C. until required.
Plates were analysed using an Acumen Explorer Plate-reader to quantify level of fluorescent signal that represents quantity of phosphorylated-GSK-3β.
IC50 calculation—IC50 is the concentration of compound required to give 50% effect over the range of activity affected by the compound, between maximum (no compound) and minimum (excess level of compound) response control data. IC50 values were determined by fitting background corrected, dose response assay data to a 4 parameter logistic curve fit equation model with the minimum response set to zero. This was done using an in-house developed algorithm within the Origin graphing software package (OriginLab Corporation, Northampton, Mass., USA). […]

[2] = target: hERG K+ ion channel (Homo sapiens, UniProt Q12809); test: hERG activity; assay type: cell-based; settings: assay of Bridgland-Taylor et al.; read-out: IC50 against hERG K+ ion channel
Text: The activity of compounds of the invention against the hERG K^+ ion channel can be determined using the assay described in the article by M. H. Bridgland-Taylor et al., Journal of Pharmcaological and Toxicological Methods, 54 (2006), 189-199.

hERG K+ ion channel, sequence (Q12809 whole entry): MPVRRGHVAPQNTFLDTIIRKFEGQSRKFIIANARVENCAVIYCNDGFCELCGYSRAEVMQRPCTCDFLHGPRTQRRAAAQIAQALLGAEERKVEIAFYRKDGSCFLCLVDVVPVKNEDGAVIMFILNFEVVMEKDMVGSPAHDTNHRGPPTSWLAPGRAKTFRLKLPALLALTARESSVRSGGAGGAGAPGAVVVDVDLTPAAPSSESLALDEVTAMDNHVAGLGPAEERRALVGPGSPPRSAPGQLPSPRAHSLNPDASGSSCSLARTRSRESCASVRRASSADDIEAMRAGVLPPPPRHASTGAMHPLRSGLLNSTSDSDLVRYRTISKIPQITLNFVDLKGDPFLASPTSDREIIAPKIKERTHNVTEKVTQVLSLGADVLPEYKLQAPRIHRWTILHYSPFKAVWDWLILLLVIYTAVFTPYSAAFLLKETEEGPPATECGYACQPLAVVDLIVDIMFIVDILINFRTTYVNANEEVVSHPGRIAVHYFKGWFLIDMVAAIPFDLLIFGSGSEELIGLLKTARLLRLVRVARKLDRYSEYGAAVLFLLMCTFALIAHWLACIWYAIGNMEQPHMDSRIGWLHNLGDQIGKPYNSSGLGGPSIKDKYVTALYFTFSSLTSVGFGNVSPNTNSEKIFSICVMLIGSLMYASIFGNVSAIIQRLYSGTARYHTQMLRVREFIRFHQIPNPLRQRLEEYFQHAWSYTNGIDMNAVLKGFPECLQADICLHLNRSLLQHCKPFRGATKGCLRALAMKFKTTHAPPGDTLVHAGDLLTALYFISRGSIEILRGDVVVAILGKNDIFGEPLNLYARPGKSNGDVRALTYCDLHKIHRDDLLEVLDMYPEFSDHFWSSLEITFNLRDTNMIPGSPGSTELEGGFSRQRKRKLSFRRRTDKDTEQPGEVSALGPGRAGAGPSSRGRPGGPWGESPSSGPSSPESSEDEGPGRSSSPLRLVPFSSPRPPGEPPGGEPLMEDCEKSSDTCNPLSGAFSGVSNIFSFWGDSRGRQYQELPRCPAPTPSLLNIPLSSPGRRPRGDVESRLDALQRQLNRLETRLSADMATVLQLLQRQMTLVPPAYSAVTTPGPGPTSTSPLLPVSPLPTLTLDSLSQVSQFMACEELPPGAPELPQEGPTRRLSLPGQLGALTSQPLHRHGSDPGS

Q: Which IC50 [1] does the source give for `NCC1(C(=O)NCc2ccc(Cl)nc2)CCN(c2ncnc3[nH]ccc23)CC1` [Example 1, 4-Aminomethyl-1-(7H-pyrrolo[2,3-d]pyrimidin-4-yl)-piperidine-4-carboxylic acid (6-chloro-pyridin-3-ylmethyl)-amide] here?
A: 59 nM

Q: And the IC50 [2]?
A: > 32000 nM

Q: With `NC1(C(=O)NCc2ccc(Cl)nc2)CCN(c2ncnc3[nH]ccc23)CC1` [Example 4, 4-Amino-1-(7H-pyrrolo[2,3-d]pyrimidin-4-yl)-piperidine-4-carboxylic acid (6-chloro-pyridin-3-ylmethyl)amide] as the molecule, how does the IC50 [1] read?
A: 880 nM

Q: What about the IC50 [2] of the same molecule?
A: > 32000 nM

Q: Which results are given for `Cn1cc(-c2cccc(C3(CN)CCN(c4ncnc5[nH]cnc45)CC3)c2)cn1` [Example 6, C-[4-[3-(1-Methyl-1H-pyrazol-4-yl)-phenyl]-1-(9H-purin-6-yl)-piperidin-4-yl]-methylamine]?
A: IC50 [1]: 31 nM; IC50 [2]: > 32000 nM
